Results taken from patent US20180153995A1, “USE OF ANTIMICROBIAL POLYMERS FOR RE-SENSITIZATION OF MICROORGANISMS UPON EMERGENCE OF RESISTANCE TO ANTI-MICROBIAL AGENTS” (Technion Research & Development Foundation Limited, priority 2008, published 2018).
≈ marks a conversion by molar mass, not a printed value. Where “and” joins values, the source holds several entries; their conditions need not be identical. Equal values may be shown once. Read-outs that look alike come from different tables or passages of the source.

Columns and labels:
S. aureus 43300 = assay: Antibiotic MIC by microdilution with or without sub-MIC polymer; format: cell-based, Staphylococcus aureus
E. coli 16329 = format: cell-based, Escherichia coli
Experimental: (§1) MICs were determined by microdilution susceptibility testing in 96-well plates (by Nunc) using inocula of 10^5 bacteria per ml. Cell populations were evaluated by optical density measurements at 620 nm and were calibrated against a set of standards. Hundred (100) μl of a bacterial suspension were added to 100 μl of culture medium (control) or to 100 μl of culture medium containing various polymer concentrations in 2-fold serial dilutions. Inhibition of proliferation was determined by optical density measurements at 620 nm after an incubation period of 24 hours at 37° C.
(§2) 100 μl of a bacterial suspension were added to 100 μl of culture medium (control) or to 100 μl of culture medium containing various antibiotic and C14(9-ene)KKNC12KNH2 (SEQ ID NO: 5) concentrations in 2-fold serial dilutions. Inhibition of proliferation was determined by optical density measurements at 620 nm after an incubation period of 24 hours at 37° C.

E. coli 14384 = assay: Antibiotic MIC by microdilution with or without sub-MIC polymer; format: cell-based, Escherichia coli; details: E. coli 14384; for Antibiotic MIC: no polymer (None)
Experimental: as §1, §2

S. aureus 15819 = assay: as above; format: cell-based, Staphylococcus aureus
S. maltophila 748 = assay: as above; format: cell-based, Stenotrophomonas maltophila
E. coli 16327 = assay: microbe, parasite or virus in culture; details: for Antibiotic MIC: E. coli 16327
Experimental: as §1, §2

MRSA 15903 = assay: microbe, parasite or virus in culture; format: cell-based, Staphylococcus aureus
Method in brief: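 Values are FIC indexes, summing each agent's MIC in combination divided by its MIC alone, for MRSA 15903. Interpretation: <0.5 clear re-sensitization, 0.5 to 4 marginal or none, >4 antagonistic.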

S. aureus 15877 = assay: Antibiotic MIC by microdilution with or without sub-MIC polymer; format: cell-based, Staphylococcus aureus
Experimental: MICs were determined by microdilution susceptibility testing in 96-well plates (Nunc) using inocula of 10^5 bacteria per ml. One hundred (100) μl of a bacterial suspension were added to 100 μl of culture medium (control) or to 100 μl of culture medium containing various antibiotic and C12(5-ene)KKNC12KNH2 (SEQ ID NO: 2) concentrations in 2-fold serial dilutions. Inhibition of proliferation was determined by optical density measurements at 620 nm after an incubation period of 24 hours at 37° C.

[1] = +¼ MIC (1.6 μM) C12(5-ene)KKNC12KNH2
[2] = +½ MIC (3.12 μM) C12K(KNC12K)2NH2
[3] = +⅓ MIC (2.1 μM) C12(5-ene)KKNC12KNH2

Compound: O=C(O)c1cn(C2CC2)c2cc(N3CCNCC3)c(F)cc2c1=O [Ciprofloxacin, ciprofloxacin]
- Antibiotic MIC (S. aureus 43300; [1]): 0.25 µg/mL
- Antibiotic MIC (S. aureus 43300; +¼ MIC (1.6 μM) C12KKNC12KNH2): 0.5 µg/mL
- Antibiotic MIC (S. aureus 43300; +¼ MIC (1.6 μM) C16(9-ene)KKNC12KNH2): 0.25 µg/mL
- Antibiotic MIC (S. aureus 43300; [2]): 0.13 to 0.25 µg/mL
- Antibiotic MIC (S. aureus 43300; +½ MIC (3.12 μM) C12KKNC12KNH2): 0.25 µg/mL
- Antibiotic MIC (S. aureus 43300; +½ MIC (3.12 μM) C16(9-ene)KKNC12KNH2): 0.125 µg/mL
- Antibiotic MIC (S. aureus 43300; [3]): 0.125 µg/mL
- Antibiotic MIC (S. aureus 43300; +⅓ MIC (2.1 μM) C12KKNC12KNH2): 0.5 µg/mL
- Antibiotic MIC (S. aureus 43300; +⅓ MIC (2.1 μM) C16(9-ene)KKNC12KNH2): 0.25 µg/mL
- Antibiotic MIC (E. coli 16329; E. coli 16329, +¼ MIC (1.6 μM) C16(9-ene)KKNC12KNH2): 64 µg/mL
- Antibiotic MIC (E. coli 16329; E. coli 16329, +½ MIC (3.12 μM) C16(9-ene)KKNC12KNH2): 64 µg/mL
- Antibiotic MIC (E. coli 16329; E. coli 16329, +⅓ MIC (2.1 μM) C16(9-ene)KKNC12KNH2): 64 µg/mL
- Antibiotic MIC (E. coli 16329; E. coli 16329, no polymer (None), Table 10): 64 µg/mL
- Antibiotic MIC (E. coli 16329; E. coli U-16329, +¼ MIC C12K(NC8K)5NH2): 64 µg/mL
- Antibiotic MIC (E. coli 16329; E. coli U-16329, +½ MIC C12K(NC8K)5NH2): 32 µg/mL
- Antibiotic MIC (E. coli 16329; E. coli U-16329, +⅓ MIC C12K(NC8K)5NH2): 64 µg/mL
- Antibiotic MIC, None (E. coli 16329; E. coli U-16329, antibiotic alone (Table 15)): 64 µg/mL
- Antibiotic MIC (E. coli 16329; E. coli U-16329, no polymer (None), Table 14): 64 µg/mL
- Antibiotic MIC in presence of C12K(NC8K)7NH2 (SEQ ID NO: 4), +¼ MIC (E. coli 16329; E. coli U-16329, polymer at ¼ of its MIC): 64 to 128 µg/mL
- Antibiotic MIC in presence of C12K(NC8K)7NH2 (SEQ ID NO: 4), +½ MIC (E. coli 16329; E. coli U-16329, polymer at ½ of its MIC): 64 µg/mL
- Antibiotic MIC in presence of C12K(NC8K)7NH2 (SEQ ID NO: 4), +⅓ MIC (E. coli 16329; E. coli U-16329, polymer at ⅓ of its MIC): 64 µg/mL
- Antibiotic MIC, None (E. coli 14384; antibiotic alone (Table 15)): <0.03 µg/mL
- Antibiotic MIC (E. coli 14384; Table 9): <0.03 µg/mL
- Antibiotic MIC (E. coli 14384; Table 14): <0.03 µg/mL
- Antibiotic MIC (S. aureus 15819): 0.125 µg/mL and 0.125 to 0.25 µg/mL
- Antibiotic MIC (S. aureus 15819; S. aureus 15819, +¼ MIC (1.6 μM) C12K(KNC12K)3NH2): 0.125 µg/mL
- Antibiotic MIC (S. aureus 15819; S. aureus 15819, +½ MIC (3.12 μM) C12K(KNC12K)3NH2): 0.06 µg/mL
- Antibiotic MIC (S. aureus 15819; S. aureus 15819, +⅓ MIC (2.1 μM) C12K(KNC12K)3NH2): 0.125 µg/mL
- Antibiotic MIC (S. aureus 15819; S. aureus 15819, no polymer (None), Table 8): 0.125 to 0.25 µg/mL
- Antibiotic MIC (S. aureus 15819; S. aureus 15819, no polymer (None), Table 11): 0.125 to 0.25 µg/mL
- Antibiotic MIC (S. aureus 15819; S. aureus 15819, no polymer (None), Table 13): 0.25 µg/mL
- Antibiotic MIC (S. maltophila 748; +¼ MIC (1.6 μM) C12K(KNC12K)3NH2): 8 µg/mL
- Antibiotic MIC (S. maltophila 748; +½ MIC (3.12 μM) C12K(KNC12K)3NH2): 2 µg/mL
- Antibiotic MIC (S. maltophila 748; +⅓ MIC (2.1 μM) C12K(KNC12K)3NH2): 4 to 8 µg/mL
- Antibiotic MIC (S. maltophila 748; no polymer (None), Table 13): 8 µg/mL
- Antibiotic MIC (E. coli 16327; +¼ MIC (1.6 μM) C12K(KNC12K)2NH2): >512 µg/mL
- Antibiotic MIC (E. coli 16327; [2]): 128 µg/mL
- Antibiotic MIC (E. coli 16327; +½ MIC (3.12 μM) C14(9-ene)KKNC12KNH2): 32 to 64 µg/mL
- Antibiotic MIC (E. coli 16327; +⅓ MIC (2.1 μM) C12K(KNC12K)2NH2): >512 µg/mL
- Antibiotic MIC (E. coli 16327; no polymer (None), Table 9): >512 µg/mL
- Antibiotic MIC (E. coli 16327; no polymer (None), Table 10): >512 µg/mL
- Antibiotic MIC (E. coli 16327; no polymer (None), Table 12): >512 µg/mL
- MIC, ¼ + MIC OAK (E. coli 16327; E. coli U16327, with C12K(KNC10K)3NH2 (SEQ ID NO: 10) at ¼ of its MIC): 128 to 256 µg/mL
- MIC, ½ + MIC OAK (E. coli 16327; E. coli U16327, with C12K(KNC10K)3NH2 (SEQ ID NO: 10) at ½ of its MIC): 128 µg/mL
- MIC, ⅓ + MIC OAK (E. coli 16327; E. coli U16327, with C12K(KNC10K)3NH2 (SEQ ID NO: 10) at ⅓ of its MIC): 128 µg/mL
- Antibiotic MIC, None (E. coli 16327; E. coli U-16327, antibiotic alone (Table 15)): 128 to 256 µg/mL
- Antibiotic MIC in presence of C12K(NC8K)7NH2 (SEQ ID NO: 4), +¼ MIC (E. coli 16327; E. coli U-16327, polymer at ¼ of its MIC): 64 to 128 µg/mL
- Antibiotic MIC in presence of C12K(NC8K)7NH2 (SEQ ID NO: 4), +½ MIC (E. coli 16327; E. coli U-16327, polymer at ½ of its MIC): 16 µg/mL
- Antibiotic MIC in presence of C12K(NC8K)7NH2 (SEQ ID NO: 4), +⅓ MIC (E. coli 16327; E. coli U-16327, polymer at ⅓ of its MIC): 32 to 64 µg/mL
- MIC (E. coli 16327; Escherichia coli, 16327, read-out: MIC, Alone): 256 µg/mL (≈ 773 µM)
- MIC (MRSA 15903; MRSA 15903, +¼ polymer MIC (1.6 μM) NC12(KNC12K)2NH2): 32 µg/mL
- MIC (MRSA 15903; MRSA 15903, +½ polymer MIC (3.1 μM) NC12(KNC12K)2NH2): 1 µg/mL
- MIC (MRSA 15903; MRSA 15903, +⅓ polymer MIC (2.1 μM) NC12(KNC12K)2NH2): 16 µg/mL
- MIC, ¼ + MIC OAK (MRSA 15903; MRSA 15903, with C12K(KNC10K)3NH2 (SEQ ID NO: 10) at ¼ of its MIC): 128 µg/mL
- MIC, ½ + MIC OAK (MRSA 15903; MRSA 15903, with C12K(KNC10K)3NH2 (SEQ ID NO: 10) at ½ of its MIC): 64 µg/mL
- MIC, ⅓ + MIC OAK (MRSA 15903; MRSA 15903, with C12K(KNC10K)3NH2 (SEQ ID NO: 10) at ⅓ of its MIC): 128 µg/mL
- MIC (MRSA 15903; S. aureus CI-15903, +polymer (¼ MIC) C12(5-ene)KKNC12KNH2): 32 µg/mL
- MIC (MRSA 15903; S. aureus CI-15903, +polymer (½ MIC) C12(5-ene)KKNC12KNH2): 0.25 µg/mL
- MIC (MRSA 15903; S. aureus CI-15903, +polymer (⅓ MIC) C12(5-ene)KKNC12KNH2): 4 µg/mL
- MIC (MRSA 15903; Staphylococcus aureus, MRSA, 24 h, MRSA 15903, antibiotic alone (Table 22), read-out: MIC, Alone): 256 µg/mL
- MIC (MRSA 15903; Staphylococcus aureus, MRSA, 24 h, MRSA 15903, antibiotic alone, read-out: MIC): 64 µg/mL
- MIC (MRSA 15903; Staphylococcus aureus, MRSA, 24 h, S. aureus CI-15903, alone, read-out: MIC): 64 µg/mL
- Antibiotic MIC (S. aureus 15877; [1]): 4 µg/mL
- Antibiotic MIC (S. aureus 15877; +½ MIC (3.12 μM) C12(5-ene)KKNC12KNH2): 4 µg/mL
- Antibiotic MIC (S. aureus 15877; [3]): 4 µg/mL
- Antibiotic MIC (S. aureus 15877; no polymer (None), Table 8): 4 µg/mL
